In one test the target is T1, Neutrophil elastase (Homo sapiens, UniProt P08246).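 Note: inhibition of neutrophil elastase enzyme activity, measured with a p-nitroanilide-linked peptide substrate.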
T1 sequence (P08246 whole entry): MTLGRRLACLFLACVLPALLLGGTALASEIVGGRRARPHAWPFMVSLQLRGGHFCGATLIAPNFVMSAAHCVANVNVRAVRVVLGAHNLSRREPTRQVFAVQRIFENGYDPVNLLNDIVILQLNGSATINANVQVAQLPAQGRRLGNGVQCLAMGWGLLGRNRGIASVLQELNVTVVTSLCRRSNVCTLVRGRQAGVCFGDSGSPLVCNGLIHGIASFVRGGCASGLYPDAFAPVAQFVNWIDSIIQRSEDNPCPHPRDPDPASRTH
The test is classed as tissue-based.

The next test has as its target T2, Adenosine receptor A3 (Homo sapiens, UniProt P0DMS8).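 Note: radioligand binding assay with AB-MECA serving as the labeled ligand.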
T2 sequence (P0DMS8 whole entry): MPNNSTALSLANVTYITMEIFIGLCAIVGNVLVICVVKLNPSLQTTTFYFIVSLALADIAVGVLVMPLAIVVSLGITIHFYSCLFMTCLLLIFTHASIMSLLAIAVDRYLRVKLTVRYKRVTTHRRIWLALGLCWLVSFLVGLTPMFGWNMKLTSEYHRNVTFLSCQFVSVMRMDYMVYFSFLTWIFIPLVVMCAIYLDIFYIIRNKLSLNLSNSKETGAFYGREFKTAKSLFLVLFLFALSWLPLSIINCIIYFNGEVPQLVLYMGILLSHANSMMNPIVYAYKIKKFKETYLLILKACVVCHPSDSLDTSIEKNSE
The class given is cell membranes, CHO-K1, Membrane.

In test [1] the target is Protein phosphatase 3 catalytic subunit alpha (Homo sapiens, UniProt Q08209). More on the design: species or system Escherichia coli.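 Note: inhibition of calcineurin (PP2B) enzyme activity, measured with DiFMUP as the substrate.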
Test [2] concerns the target C-C chemokine receptor type 2 (Homo sapiens, UniProt P41597). The class given is cell membranes, Membrane. To be noted: cho-k1.
For test [3], the target named is T3, Nitric oxide synthase, inducible (Mus musculus, UniProt P29477).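 Note: inhibition of iNOS enzyme activity measured with L-arginine as substrate.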
T3 sequence (P29477 whole entry): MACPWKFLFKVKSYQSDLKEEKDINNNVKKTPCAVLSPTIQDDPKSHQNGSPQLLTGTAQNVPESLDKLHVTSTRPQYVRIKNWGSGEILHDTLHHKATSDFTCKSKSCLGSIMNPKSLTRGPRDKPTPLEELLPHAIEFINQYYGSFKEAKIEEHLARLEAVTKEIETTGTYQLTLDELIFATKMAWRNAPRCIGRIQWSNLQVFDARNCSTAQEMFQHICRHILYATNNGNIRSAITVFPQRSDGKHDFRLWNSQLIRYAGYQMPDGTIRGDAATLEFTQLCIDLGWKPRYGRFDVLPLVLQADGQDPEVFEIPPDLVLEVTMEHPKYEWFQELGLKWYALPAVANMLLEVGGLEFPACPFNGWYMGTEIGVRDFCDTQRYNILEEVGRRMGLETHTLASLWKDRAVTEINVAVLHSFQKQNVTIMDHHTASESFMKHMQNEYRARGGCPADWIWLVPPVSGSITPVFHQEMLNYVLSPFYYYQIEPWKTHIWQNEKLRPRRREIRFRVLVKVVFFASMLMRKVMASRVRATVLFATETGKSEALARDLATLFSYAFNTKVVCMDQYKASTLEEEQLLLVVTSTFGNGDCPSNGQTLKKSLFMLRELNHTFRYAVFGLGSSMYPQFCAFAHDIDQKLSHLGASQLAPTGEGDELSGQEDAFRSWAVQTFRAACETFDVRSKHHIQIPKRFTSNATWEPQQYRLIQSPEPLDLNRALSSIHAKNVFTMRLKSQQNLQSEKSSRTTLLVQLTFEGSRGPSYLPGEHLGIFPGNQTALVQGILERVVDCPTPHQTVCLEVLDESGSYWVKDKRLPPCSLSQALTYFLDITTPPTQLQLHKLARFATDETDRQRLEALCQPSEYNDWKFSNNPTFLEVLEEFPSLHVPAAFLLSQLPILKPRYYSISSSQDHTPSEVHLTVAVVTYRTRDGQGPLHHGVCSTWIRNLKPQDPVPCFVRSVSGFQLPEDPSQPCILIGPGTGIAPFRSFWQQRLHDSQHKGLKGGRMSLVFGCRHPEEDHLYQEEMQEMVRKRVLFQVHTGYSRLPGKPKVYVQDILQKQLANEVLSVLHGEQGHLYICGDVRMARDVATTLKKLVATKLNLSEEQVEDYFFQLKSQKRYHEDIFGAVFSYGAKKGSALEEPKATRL
More on the design: species or system Escherichia coli.

For a further test, the target named is Cannabinoid receptor 1 (Homo sapiens, UniProt P21554). The test is classed as cell membranes, Chem-1, Membrane. Particulars: chem-1.
Sequence of Cannabinoid receptor 1 (P21554 whole entry): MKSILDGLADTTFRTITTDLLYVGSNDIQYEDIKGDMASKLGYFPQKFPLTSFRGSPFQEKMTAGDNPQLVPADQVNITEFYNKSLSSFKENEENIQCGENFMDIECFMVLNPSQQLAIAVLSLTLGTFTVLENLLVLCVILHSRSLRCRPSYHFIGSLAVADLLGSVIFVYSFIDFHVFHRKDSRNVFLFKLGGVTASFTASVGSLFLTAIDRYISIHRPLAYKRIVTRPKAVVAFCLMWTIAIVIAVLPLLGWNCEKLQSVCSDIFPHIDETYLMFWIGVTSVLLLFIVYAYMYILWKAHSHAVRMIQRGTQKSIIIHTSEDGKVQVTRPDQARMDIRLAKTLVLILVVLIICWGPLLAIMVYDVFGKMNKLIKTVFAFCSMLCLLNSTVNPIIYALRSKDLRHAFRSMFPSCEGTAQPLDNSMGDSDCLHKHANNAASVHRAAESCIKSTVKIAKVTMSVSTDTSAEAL
Note: in other assays of this panel Not Active means under 50% inhibition at 10 µM.

Sequence of C-C chemokine receptor type 2 (P41597 whole entry): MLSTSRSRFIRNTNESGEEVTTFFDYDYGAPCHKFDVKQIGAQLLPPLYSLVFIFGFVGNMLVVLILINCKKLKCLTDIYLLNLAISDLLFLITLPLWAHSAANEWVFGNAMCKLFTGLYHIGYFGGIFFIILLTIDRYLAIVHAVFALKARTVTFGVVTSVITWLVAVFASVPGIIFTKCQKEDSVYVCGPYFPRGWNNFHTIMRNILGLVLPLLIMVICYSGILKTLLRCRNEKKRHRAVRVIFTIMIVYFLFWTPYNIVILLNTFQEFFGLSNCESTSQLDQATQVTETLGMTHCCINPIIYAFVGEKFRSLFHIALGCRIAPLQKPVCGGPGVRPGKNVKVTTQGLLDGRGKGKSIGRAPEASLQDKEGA

On to `COC(=O)[C@H]1[C@H]2C[C@@H]3c4[nH]c5cc(OC)ccc5c4CCN3C[C@H]2C[C@@H](OC(=O)c2cc(OC)c(OC)c(OC)c2)[C@@H]1OC` [RESERPINE], for which the IC50 result (on Neutrophil elastase; on Adenosine receptor A3 (cho-k1); in test [1]; in test [2]; in test [3]; against Cannabinoid receptor 1) was “Not Active” throughout.
On to `O=C(O)c1ccccc1O` [SALICYLIC ACID], for which the half-inhibitory concentration (IC50) entry (against Neutrophil elastase; against Adenosine receptor A3 (cho-k1); in test [1]; in test [2]; in test [3]; at Cannabinoid receptor 1) was “Not Active” throughout.
In the case of `C[S+]([O-])c1ccc(-c2nc(-c3ccncc3)c(-c3ccc(F)cc3)[nH]2)cc1` (stereo not drawn) [SB-203580], the IC50 entry (against Neutrophil elastase; on Adenosine receptor A3 (cho-k1); in test [1]; in test [2]; in test [3]; against Cannabinoid receptor 1) was “Not Active” in each case.
On to `CC1CCC(NC(=O)N(CCCl)N=O)CC1` (stereo not drawn) [SEMUSTINE], for which the IC50 result (against Neutrophil elastase; on Adenosine receptor A3 (cho-k1); in test [1]; in test [2]; in test [3]; against Cannabinoid receptor 1) was “Not Active” throughout.
With `O=C1C[C@@H]2OCC=C3CN4CC[C@]56c7ccccc7N1[C@H]5[C@H]2[C@H]3C[C@H]46` [STRYCHNINE], the IC50 result (at Neutrophil elastase; on Adenosine receptor A3 (cho-k1); in test [1]; in test [2]; in test [3]; at Cannabinoid receptor 1) was “Not Active” throughout.
Consider `C[N+](C)(C)CCOC(=O)CCC(=O)OCC[N+](C)(C)C.[Cl-].[Cl-]` [SUCCINYLCHOLINE CHLORIDE], for which the IC50 result (against Neutrophil elastase; on Adenosine receptor A3 (cho-k1); in test [1]; in test [2]; in test [3]; at Cannabinoid receptor 1) was “Not Active” throughout.
Regarding `Nc1ccc(S(=O)(=O)NC(=O)c2ccccc2)cc1` [SULFABENZAMIDE], the IC50 result (against Neutrophil elastase; on Adenosine receptor A3 (cho-k1); in test [1]; in test [2]; in test [3]; against Cannabinoid receptor 1) was “Not Active” throughout.
Consider `CCCCCCCCNC(C)C(O)c1ccc(SC(C)C)cc1` (stereo not drawn) [SULOCTIDIL], for which the IC50 entry was “Not Active” on Neutrophil elastase; 3710 nM on Adenosine receptor A3 (read-out: IC50); “Not Active” in test [1]; “Not Active” in test [2]; “Not Active” in test [3]; “Not Active” against Cannabinoid receptor 1. Also, the Ki at Adenosine receptor A3 (read-out: Ki) came to 2090 nM.
Consider `O=c1[nH]c(=O)n(C2CCCO2)cc1F` (stereo not drawn) [TEGAFUR], for which the IC50 result (at Neutrophil elastase; at Adenosine receptor A3 (cho-k1); in test [1]; in test [2]; in test [3]; on Cannabinoid receptor 1) was “Not Active” throughout.
Turning to `CC(=N)S` [THIOACETAMIDE], the IC50 result (on Neutrophil elastase; at Adenosine receptor A3 (cho-k1); in test [1]; in test [2]; in test [3]; on Cannabinoid receptor 1) was “Not Active” throughout.
Regarding `Cc1ccc(C(=O)c2ccc(CC(=O)O)n2C)cc1` [TOLMETIN], the IC50 entry (at Neutrophil elastase; against Adenosine receptor A3 (cho-k1); in test [1]; in test [2]; in test [3]; against Cannabinoid receptor 1) was “Not Active” throughout.
For the molecule `CC(=O)OCC(COC(C)=O)OC(C)=O` [TRIACETIN], the IC50 entry (against Neutrophil elastase; against Adenosine receptor A3 (cho-k1); in test [1]; in test [2]; in test [3]; at Cannabinoid receptor 1) was “Not Active” each time.
Take `CN1CCN(CCCN2c3ccccc3Sc3ccc(C(F)(F)F)cc32)CC1` [TRIFLUOPERAZINE]: the IC50 result (on Neutrophil elastase; against Adenosine receptor A3 (cho-k1); in test [1]; in test [2]; in test [3]; at Cannabinoid receptor 1) was “Not Active” each time.
Take TRANSPLATIN: the IC50 entry against Neutrophil elastase is “Not Active”; at Adenosine receptor A3 (cho-k1, read-out: IC50), 989 nM; in test [1] it was “Not Active”; in test [2], “Not Active”; in test [3] it was “Not Active”; on Cannabinoid receptor 1, “Not Active”. The Ki entry at Neutrophil elastase is “Not Active”; at Adenosine receptor A3 (cho-k1, read-out: Ki), 559 nM; in test [1] it was “Not Active”; in test [2], “Not Active”; in test [3] it was “Not Active”; at Cannabinoid receptor 1, “Not Active”.
As for ZIRCONIUM(IV) CHLORIDE, the IC50 entry (on Neutrophil elastase; at Adenosine receptor A3 (cho-k1); in test [1]; in test [2]; in test [3]; at Cannabinoid receptor 1) was “Not Active” in each case. Moreover, the Ki entry (at Neutrophil elastase; on Adenosine receptor A3 (cho-k1); in test [1]; in test [2]; in test [3]; on Cannabinoid receptor 1) was “Not Active” in each case.

The IC50 is the midpoint of a concentration-inhibition curve. The term Ki denotes the dissociation constant of the complex between target and ligand, obtained from inhibition or displacement.
